Consider 51 compounds from PubChem BioAssay AID1996.

Converted amounts (≈) assume the structure as drawn.

For the data set the following is noted: buffer; pH 7.4; 200.0 µM.
Broadly, the solubility (kinetic) is the concentration staying in solution when a stock, usually in DMSO, is diluted into the medium. `CC(NC(=O)c1cccc(S(=O)(=O)N(C)c2ccccc2)c1)c1cccnc1` (stereo unspecified) returned a kinetic solubility of more than 59.3 µg/mL.

In turn, `CCc1nc(C(N)=O)c2[nH]c(=O)n(-c3ccc(OC)cc3OC)c2n1` yielded a solubility (kinetic) of more than 51.5 µg/mL.

Turning to `O=C1CCC([N+](=O)[O-])C(c2cccc3ccccc23)N1` (stereo unspecified), the solubility (kinetic) is more than 40.5 µg/mL.

In turn, `COc1cc(/C=C/c2nc3ccccc3c(=O)[nH]2)cc(Cl)c1O` came in with a solubility (kinetic) of 43.2 µg/mL (≈ 131 µM).

The compound `NC1=NC(c2ccccc2)=NC1(NC(=O)c1ccccc1)C(Cl)Cl` (stereo unspecified) registered a kinetic solubility of 44.4 µg/mL (≈ 123 µM).

Turning to `COC(=O)CC(NC(=O)c1cccs1)c1ccc(OC)c(OC)c1` (stereo unspecified), the solubility (kinetic) is more than 52.4 µg/mL.

Consider `Cc1cc(=O)[nH]c(SCC(=O)c2ccc(O)c(O)c2)n1`, for which the kinetic solubility was more than 43.8 µg/mL.

The compound `NC(=O)COC(=O)Cc1coc2cc3c(cc12)CCC3` gave a solubility (kinetic) of 35.6 µg/mL (≈ 130 µM).

Take `O=C(C(=O)N1CCCC1)c1c[nH]c2ccccc12`: the kinetic solubility was more than 36.3 µg/mL.

As for `C=CCN1C(=S)N[C@@H]2CS(=O)(=O)C[C@@H]21`, the kinetic solubility is more than 34.8 µg/mL.

As for `Cc1nc(Nc2cccc(F)c2)c2oc3ccccc3c2n1`, the solubility (kinetic) was less than 0.2 µg/mL.

In turn, `CCOC(=O)C1(Cc2ccccc2)C(=O)N(CCCN(C)C)c2ccccc21.Cl` (stereo unspecified) registered a kinetic solubility of 57 µg/mL.

In the case of `COc1ccc(Cl)cc1NC(=S)NCc1cccs1`, the kinetic solubility was found to be 37.3 µg/mL (≈ 119 µM).

For the compound `O=C(c1ccc(-c2cc(Cl)ccc2Cl)o1)N1CCOCC1`, the kinetic solubility was 11.3 µg/mL (≈ 34.6 µM).

Turning to `c1ccc(-c2nccc(-c3ccc4c(c3)OCO4)n2)cc1`, the solubility (kinetic) was less than 0.3 µg/mL.

Take `CNC(=S)NC1CC2CCCC(C1)N2Cc1ccccc1OC` (stereo unspecified): the kinetic solubility was more than 50 µg/mL.

In turn, `Cn1cccc1C(=O)OCc1ccc(F)cc1` gave a kinetic solubility of less than 0.5 µg/mL.

`NS(=O)(=O)c1ccc(NC(=O)c2ccc(OCC3CCCO3)cc2)cc1` (stereo unspecified) gave a solubility (kinetic) of 13 µg/mL (≈ 34.5 µM).

In turn, `Cn1c(N)c(C(=O)COC(=O)Cc2ccccc2F)c(=O)n(C)c1=O` returned a kinetic solubility of 24.2 µg/mL (≈ 69.3 µM).

`CCN(CC)CCCN(C(=O)c1ccc(F)cc1)c1nc(-c2ccc(OC)cc2)cs1` registered a solubility (kinetic) of 62.1 µg/mL (≈ 141 µM).

Take `Cc1cccc(NC(=S)NC(=O)c2ccc(-c3ccccc3)cc2)n1`: the solubility (kinetic) amounted to 0.5 µg/mL (≈ 1.44 µM).

`O=c1[nH]cc(S(=O)(=O)N2CCOCC2)c(=O)[nH]1` showed a solubility (kinetic) of more than 39.2 µg/mL.

Take `CCCCN1C(=O)c2ccc(C(=O)OCC(=O)NCCc3ccc(S(N)(=O)=O)cc3)cc2C1=O`: the kinetic solubility was 42.1 µg/mL (≈ 86.4 µM).

Compound `CCCCN1C(=O)C(=O)N(CC(=O)Nc2ccccc2C(C)=O)C1=O` registered a kinetic solubility of more than 51.8 µg/mL.

`O=C(COC(=O)CCc1c[nH]c2ccccc12)NCc1ccc2c(c1)OCO2` returned a solubility (kinetic) of 43 µg/mL (≈ 113 µM).

Consider `COc1ccc(CC(=O)N2CCN(c3ccccc3)CC2)cc1`, for which the solubility (kinetic) came out at 31.7 µg/mL (≈ 102 µM).

Turning to `O=C(NCCCCc1ccccc1)c1ccc(F)cc1`, the solubility (kinetic) worked out at 1.4 µg/mL (≈ 5.16 µM).

Turning to `O=S(=O)(NCCc1cccs1)c1ccc(Br)cc1`, the solubility (kinetic) stood at 36.3 µg/mL (≈ 105 µM).

For `COCCCNC(=S)Nc1cccc2ncccc12`, the kinetic solubility amounted to 40.9 µg/mL (≈ 149 µM).

As for `Cc1cccn2c(=O)nc(SCC(=O)NCc3ccc(F)cc3)nc12`, the kinetic solubility was more than 53.8 µg/mL.

Compound `Cn1ncc(Cl)c1C(=O)NC1CCCC1` came in with a solubility (kinetic) of more than 34.2 µg/mL.

Compound `CN(Cc1ccc(OC(F)F)cc1)C(=O)/C=C/c1ccc(S(=O)(=O)N2CCOCC2)cc1` yielded a kinetic solubility of 22.8 µg/mL (≈ 48.9 µM).

Turning to `CCc1cc2c(Nc3ccc(O)cc3)nc(C)nc2s1.Cl`, the kinetic solubility stood at 13.4 µg/mL.

`CCOc1cc(C#N)ccc1OCC(=O)N1CCc2ccccc2C1` had a kinetic solubility of 45.5 µg/mL (≈ 135 µM).

The compound `COc1cc(OC)cc(C(=O)NCCc2cnc[nH]2)c1` returned a kinetic solubility of more than 41.3 µg/mL.

In turn, `CC(C)c1ccc(NC(=O)CC2Oc3ccccc3NC2=O)cc1` (stereo unspecified) showed a kinetic solubility of 1.3 µg/mL (≈ 4.01 µM).

The compound `Cc1[nH]c2ccccc2c(=O)c1CN1CCCCCC1` gave a kinetic solubility of more than 40.6 µg/mL.

Consider `COc1cccc(NC(=O)CNC(=O)c2ccc([N+](=O)[O-])cc2)c1`, for which the kinetic solubility was found to be 2.9 µg/mL (≈ 8.81 µM).

`Cc1nonc1-c1csc(N)n1` had a solubility (kinetic) of more than 27.3 µg/mL.

The compound `CC1Cc2ccccc2N1NC(=O)c1ccc(Cl)c(S(N)(=O)=O)c1` (stereo unspecified) came in with a solubility (kinetic) of more than 54.9 µg/mL.

As for `CCOc1ccc(NC(=O)c2ccc(CC)s2)c([N+](=O)[O-])c1`, the solubility (kinetic) is less than 0.3 µg/mL.

`CCN(CC)c1ccc(NC(=O)c2ccc3c(c2)OCO3)c(C)c1` had a solubility (kinetic) of 5.4 µg/mL (≈ 16.5 µM).

For `O=C(CC1SCCNC1=O)Nc1cccc([N+](=O)[O-])c1` (stereo unspecified), the kinetic solubility is more than 44.3 µg/mL.

Turning to `CCOc1ccc(CN(C)C(=O)CNC(=O)c2ccccc2)cc1`, the solubility (kinetic) is more than 49 µg/mL.

As for `Cc1c(Cl)c([N+](=O)[O-])nn1CC(=O)NCCCN1CCOCC1`, the solubility (kinetic) was more than 51.9 µg/mL.

`COc1ccc(S(=O)(=O)N2CCC(N3CCCC3)CC2)cc1` yielded a kinetic solubility of 46.7 µg/mL (≈ 144 µM).

Consider `CCOC(=O)c1cc2c(ccn2C)n1Cc1ccccc1Cl`, for which the kinetic solubility is less than 0.3 µg/mL.

In turn, `NC(=S)Cc1ccccc1Cl` registered a solubility (kinetic) of 25.2 µg/mL (≈ 136 µM).

`Cc1ccc(Sc2ccc(C(=O)N(C)C)cc2[N+](=O)[O-])cc1` returned a solubility (kinetic) of 35 µg/mL (≈ 111 µM).

On to `CC(NC(=O)OCc1ccccc1)c1ccccc1` (stereo unspecified), for which the solubility (kinetic) was more than 38.3 µg/mL.

As to `CCOC(=O)C(=O)Nc1ccccc1C(=O)OC`, the kinetic solubility is more than 37.7 µg/mL.
